pIC50: −log10 of the molar value.
tested on: P. falciparum 3D7 growth, pLDH absorbance; assay: P. falciparum 3D7 growth inhibition, dose response, strain 3D7 (AID 2305)

Row | SMILES | pIC50
1 | OC(CNc1ccnc(Nc2cccc(Cl)c2)n1)c1cccc(F)c1 (stereo unspecified) | 6.01
2 | FC(F)(F)c1cc(Nc2ccc(Oc3ccccc3)cc2)c2cc(-c3ccncc3)ccc2n1 | 6.35
3 | Nc1cc(C=Cc2ccc([N+](=O)[O-])s2)nc2ccccc12 | 6.12
4 | COc1cc(C(=O)N2COCC(CCCN3CCC(N4CCCC4)CC3)(c3ccc(Cl)c(Cl)c3)C2)cc(OC)c1OC (stereo unspecified) | 6.11
5 | O=C(Nc1ccc(Cl)cc1)Nc1cccc(-c2ccc(-c3nc4ccc(F)cc4[nH]3)cc2)c1 | 7.30
6 | COc1ccc(C2CCN(CCCCNC(=O)c3ccc(NC(=O)c4ccc(Cl)cc4)cc3)CC2)c(C)c1 | 6.12
7 | O=C(N[C@H]1CCN(Cc2ccc(OCCCN3CCCCC3)cc2)C1)c1ccc(Cl)c(Cl)c1 | 6.11
8 | O=C(Nc1cccnc1)c1cc(-c2cccnc2)nc2ccc(Br)cc12 | 6.19
9 | O=C(/C=C/c1ccc(Cl)c(Cl)c1)NC1CCC(CN2CCC(c3c[nH]c4cc(O)ccc34)CC2)CC1 (stereo unspecified) | 6.09
10 | COc1cccc(-c2cc(C(=O)NC3CCC(N4CCC(c5ccccc5C)CC4)CC3)[nH]n2)c1 (stereo unspecified) | 5.95
11 | Fc1cc(Cl)ccc1Nc1ccnc2cc(-c3ccc(CN4CCCCC4)o3)ccc12 | 6.47
12 | OCC1CCN(Cc2ccc(-c3ccc(-c4nc5ccc(C(F)(F)F)cc5[nH]4)s3)cc2)CC1 | 6.32
13 | C=CCN1Cc2c(O)cccc2C(c2ccc(O)c(O)c2)C1 (stereo unspecified) | 6.17
14 | CN(C)C1CCN(Cc2ccc(N3CCN(Cc4cccc5[nH]ccc45)CC3)nc2)CC1 | 5.82
15 | Cc1c(C(=O)N[C@@H](C)c2ccccc2)c2cc(O)c(Br)cc2n1C1CCCCC1 | 6.08
16 | CCC(CC)NCc1c(O)ccc2c(CNC(CC)CC)c(O)ccc12 | 6.41
17 | CCn1c(-c2nonc2N)nc2c(-c3cccc(Cl)c3)ncc(OCCCNCc3cnc(C)nc3N)c21 | 6.00
18 | CCCCNCc1ccc(-c2nc(CN(CCCn3ccnc3)C(=O)Nc3ccc(CC)cc3)cs2)cc1 | 6.08
19 | NCCNc1ccc([N+](=O)[O-])cc1C(=O)Nc1cccc(C(F)(F)F)c1 | 6.04
20 | CCc1cc(-c2onc(C)c2-c2cc3ccccc3o2)c(O)cc1OC | 6.01
21 | Cc1[nH]c2ccccc2c1C1=CCN(CCCCC2(C)C(=O)Nc3ccccc32)CC1 (stereo unspecified) | 6.64
22 | Cc1cccc2[nH]c(-c3ccc(-c4cccc(NC(=O)Nc5ccsc5)c4)s3)nc12 | 6.27
23 | O=[N+]([O-])c1cccc(NC(=S)N2CCCN(Cc3ccc(C(F)(F)F)cc3)CC2)c1 | 5.92
24 | CC1(C)S(=O)(=O)CC(O)CS1(=O)=O | 6.33

Row | SMILES | pIC50
25 | CN1CCN(CCCN(C(=O)Nc2cc(C(F)(F)F)cc(C(F)(F)F)c2)c2ccccc2Cc2ccccc2)CC1 | 5.95
26 | O=C(COc1ccccc1Cl)N1CCc2cc3nccc(N4CCN5CCC[C@H]5C4)c3cc21 | 6.13
27 | COc1ccc(Cl)cc1-c1nc(C(=O)NCCN2CCCCC2)c(C(C)C)s1 | 6.12
28 | Cc1nc(N)nc(N)c1OCc1cccc2c1ccc1ccccc12 | 7.00
29 | c1cncc(NCc2ccc(-c3cc4ccncc4cc3OC3CCNCC3)s2)c1 | 6.01
30 | O=C(Cc1cccc(O)c1)Nc1ccc(-c2cccc(-c3nc4ccc(C(F)(F)F)cc4[nH]3)c2)cc1 | 6.01
31 | COc1ccc(-c2ccc(NC(=O)c3ccccc3)cc2)cc1CN1CCCN(C)CC1 | 6.04
32 | O=C(/C=C/c1ccccc1Cl)Nc1ccc(Br)c(OCCN2CCCCC2)c1 | 6.77
33 | COc1ccc2nc3cc(Cl)ccc3c(NCCCCCCNc3c4ccc(Cl)cc4nc4ccc(OC)cc34)c2c1 | 6.18
34 | O=C(Nc1ccc(N2CCN(Cc3ccccc3)CC2)cc1)c1cccs1 | 6.11
35 | COc1cc2c(c(OC)c1OC)C[C@H]1c3c(cc4c(c3-2)OCO4)CCN1C | 6.01
36 | CC(=O)N/N=C/[C@H](CCc1ccccc1)NC(=O)[C@H](CC(C)C)NC(=O)c1cccc(OCCN2CCOCC2)c1 | 6.62
37 | FC(F)(F)c1ccc2nc(-c3ccc(-c4cccc(CNCc5cnn(-c6ccccc6)n5)c4)cc3)[nH]c2c1 | 6.19
38 | CCCOc1ccccc1-c1nc2[nH]c3c(c2c(=O)[nH]1)CCN(C)C3 | 6.43
39 | CC(C)Oc1cc(-c2ccc(S(C)(=O)=O)cc2)nc(N(Cc2cccc(F)c2F)Cc2cccc(F)c2F)n1 | 6.92
40 | COc1ccccc1C1CCN(Cc2csc(NC(=O)c3ccc(-c4ccc(C(F)(F)F)cc4)cc3)n2)CC1 | 6.02
41 | CCC(CC)(CCC#N)CN(C[C@@H](O)[C@H](Cc1ccccc1)NC(=O)OC(C)(C)C)S(=O)(=O)c1ccc(OC)cc1 | 5.98
42 | CN1CCC(N2CCN(Cc3cccc(-c4ccc(-c5nc6ccccc6[nH]5)cc4)c3)CC2)CC1 | 6.80
43 | Cc1noc(C)c1-c1cccc(CNCc2cccc(-c3csc(-c4nc5ccccc5[nH]4)c3)c2)c1 | 6.59
44 | Cc1ccccc1C1CCN(C2CCC(NC(=O)c3ccc(-c4cccc(C(F)(F)F)c4)o3)CC2)CC1 (stereo unspecified) | 6.46
45 | Cc1c(Cl)cccc1S(=O)(=O)Nc1cccc(CCN2CCC(N3CCCCC3)CC2)c1 | 6.08
46 | Cc1ccc(Nc2nc(NN=Cc3cccc(O)c3)nc(Nc3ccc([N+](=O)[O-])cc3)n2)cc1C | 6.13
47 | CN(Cc1cc(C(F)(F)F)cc(C(F)(F)F)c1)C(=O)C(Cc1ccc(F)cc1)C1CCCNC1 (stereo unspecified) | 5.81
48 | Oc1ccccc1CN1CCCC(COC(c2ccc(F)cc2)c2ccc(F)cc2)C1 (stereo unspecified) | 6.11

Row | SMILES | pIC50
49 | COc1cccc2c(C)cc(NCc3ccc(Cl)cc3)nc12 | 6.07
50 | O=C(Nc1ccc(OC2CCN(Cc3ccco3)C2)c(Cl)c1)c1ccc2ncccc2c1 (stereo unspecified) | 5.97
51 | CN1CCc2ccc(NC(=O)Nc3cccc([N+](=O)[O-])c3)cc2C1 | 5.96
52 | O=C(Nc1ccc(OC2CCN(Cc3ccco3)CC2)c(Cl)c1)c1ccc2ncccc2c1 | 6.02
53 | O=C(Nc1ccc(Cl)cc1)OCCn1nnnc1C(c1ccc(Cl)cc1)N1CCOCC1 (stereo unspecified) | 5.93
54 | CC(C)(C)c1ccc(CN2CCCCC(NC(=O)c3cc(-c4ccccc4Cl)cs3)C2)cc1 (stereo unspecified) | 5.95
55 | O=S(=O)(Nc1cccc(CCN2CCCCC2CCN2CCCC2)c1)c1ccc(Oc2ccccc2)cc1 (stereo unspecified) | 5.98
56 | NC(=O)c1cccc(CNC(=O)NC[C@H]2CN(Cc3ccc(Cl)c(Cl)c3)CCO2)c1 | 6.23
57 | O=C(/C=C/c1ccc(Cl)c(Cl)c1)NCCCCCN1CCCN(C(=O)Nc2ccc(F)c(F)c2)CC1 | 6.10
58 | O=C1COc2ccc(S(=O)(=O)N3CCC[C@@H]3CCN3CCC(c4c[nH]c5cnccc45)CC3)cc2N1 | 6.07
59 | CCC(CC)N1CCN(CC(=O)Nc2ccc([N+](=O)[O-])cc2C(=O)Nc2cccc(OC)c2)CC1 | 6.06
60 | CCN(CC)CCN(Cc1ccc(-c2ccc(C(F)(F)F)cc2)cc1)C(=O)Cn1c(CCc2cccc(F)c2F)nc(=O)c2cccnc21 | 6.14
61 | FC(F)(F)c1ccc2nc(-c3ccc(-c4cccc(CN5CCC(CCN6CCCCC6)CC5)c4)cc3)[nH]c2c1 | 6.82
62 | CC(=O)N(Cc1cccc(-c2cccc(CNCCc3ccccc3)c2)c1)C1CCN(Cc2ccccc2)CC1 | 6.17
63 | CN1CCN(CC(=O)Nc2ccc(-c3ccc(-c4nc5ccccc5[nH]4)s3)cc2)CC1 | 6.52
64 | CC(C)(C)n1nnnc1C(c1cccnc1)N(Cc1ccccc1)Cc1ccc(Cl)cc1 (stereo unspecified) | 6.13
65 | CN(C)CCNCc1cccc(-c2ccc3c(Nc4ccc(F)cc4Cl)ccnc3c2)c1 | 6.09
66 | O=C(/C=C/c1ccc2ccccc2c1)NC1CCC(CN2CCC(c3c[nH]c4ccccc34)CC2)CC1 (stereo unspecified) | 6.14
67 | O=C(Cn1c(CCc2cccc(F)c2F)nc(=O)c2ccccc21)N(Cc1ccc(-c2ccc(C(F)(F)F)cc2)cc1)C1CCN(C2CCOCC2)CC1 | 6.13
68 | Cc1ccc(S(=O)(=O)NC2=NC(C)(C)N(OCc3ccc(Cl)c(Cl)c3)C(N)=N2)cc1 | 5.94
69 | Cc1ccc2[nH]c(-c3ccccc3N)cc2c1 | 6.04
70 | COc1ccc(NC(=O)CCNc2ccnc(NCCc3ccc(F)cc3)n2)cc1 | 6.00
71 | COc1ccc(/C=C/C(=O)N2CCc3cc4nccc(N5CCN6CCC[C@H]6C5)c4cc32)cc1 | 6.19
72 | CCn1ccc2c(N3CCCCS3(=O)=O)cc(C(=O)N[C@@H](Cc3ccccc3)[C@H](O)CNC(C)(C)CCCC(C)C)cc21 | 6.38

Row | SMILES | pIC50
73 | CC[C@H]1CN2CC[C@H]1C[C@H]2[C@@H](O)c1cc(OCCCN(C)C)nc2ccc(OC)cc12 | 6.89
74 | O=C(/C=C/c1ccc(Cl)c(Cl)c1)N1CCC(CN2CCC(c3c[nH]c4ccncc34)CC2)CC1 | 6.14
75 | COc1cccc(C(=O)NCc2n[nH]c(=S)n2-c2ccc(Cl)c(Cl)c2)c1 | 6.77
76 | N#Cc1ccc(CN2CCC(Oc3ccc(NC(=O)c4cccs4)cc3Cl)C2)cc1 (stereo unspecified) | 6.40
77 | CON=C1CCC(Cn2ccnc2)(c2ccc(Cl)cc2Cl)CC1 (stereo unspecified) | 6.06
78 | NC(=O)c1ccc(NCC(=O)Nc2cccc(-c3cccc(-c4nc5ccccc5[nH]4)c3)c2)cc1 | 6.00
79 | O=C1CC(C(=O)O)CC(=O)N1 | 6.12
80 | Cc1cccc2[nH]c(-c3cccc(-c4ccc(NC(=O)c5cnc[nH]5)cc4)c3)nc12 | 6.14
81 | CCNc1cc(C(=O)N[C@@H](Cc2ccccc2)[C@H](O)CNC(CC)c2cccc(Cl)c2)cc(N2CCCC2=O)c1 (stereo partly specified) | 7.52
82 | CN(C)CCCOc1ccc(CNCc2cccc(Oc3ccc(Cl)cc3)c2)cc1 | 6.09
83 | CN(C)CCn1cc(C(=O)c2cc(Cl)ccc2O)cc1-c1nc2ccccc2c(=O)[nH]1 | 6.20
84 | CCOc1ccc(CN(CCc2ccc3c(c2)OCO3)Cc2cc(OC)ccc2O)cc1 | 6.12
85 | NC(N)=Nc1nc(-c2cccc(NC(=O)Cc3ccccc3)c2)cs1 | 6.00
86 | NCc1ccc(-c2cccc(CNC3CCN(Cc4ccccc4)CC3)c2)cc1 | 6.17
87 | CC(C)(C)NCCN(Cc1ccc(-c2ccc(C(F)(F)F)cc2)cc1)C(=O)Cn1c(SCc2ccc(F)cc2)nc(=O)c2c1CCC2 | 6.07
88 | CC(C)CNc1nc(N)nc2ccc3c(ccn3CC(C)C)c12 | 6.19
89 | Cc1ccc2c(Cc3cnc(N)nc3N)cc(C)c(N)c2n1 | 5.85
90 | O=C(C=Cc1ccc(Br)cc1)NC1CCC(CN2CCC(c3c[nH]c4ccccc34)CC2)CC1 (stereo unspecified) | 6.17
91 | Cc1ccc(-c2nnc(-c3ccc(C(=O)NC4CCN(Cc5ccc(C#N)cc5)CC4)cc3)o2)cc1Br | 6.07
92 | CCn1cc(-c2nc(-c3cc(OC)cc(OC)c3)no2)c(=O)c2ccccc21 | 6.47
93 | NC1=NC2(CCCCC2)N(OCCCCCCC2CCCCC2)C(N)=N1 | 6.44
94 | CCC(C)c1ccc(NC(=O)c2ccc(S(=O)(=O)Nc3ccc(OC)c(N4CCN(CC5CC5)CC4)c3)cc2)cc1 (stereo unspecified) | 6.15
95 | Cc1ccc2nc3sc(C(=O)NCCCN4CCC(N5CCCCC5)CC4)cc3cc2c1 | 6.17
96 | Cc1cccc2[nH]c(-c3cccc(-c4cccc(NC(=O)Nc5ccccc5)c4)c3)nc12 | 6.85

From PubChem BioAssay AID2305 (GlaxoSmithKline (GSK), 2010)
